In article PMC12613848, “First in human phase 1 study of DT2216, a selective BCL-xL degrader, in patients with relapsed/refractory solid malignancies” (Journal of Hematology & Oncology, 2025):

Molecular target: T1, VHL (Homo sapiens, UniProt P40337)
T1 construct: assessment of BCL-XL and VHL levels in peripheral white blood cells (WBC); endogenous in cells; host or cells: peripheral white blood cells of trial patients
Assay: VHL expression in peripheral white blood cells of patients
Format: in vivo
Details: 0.4 mg/kg IV, 4 patients, after C1D1
Method: Premedication prior to each infusion was at the discretion of the investigator or according to institutional guidelines. Patient assessment and follow-up procedures can be found in the schedule of assessments in this study. The clinical response was evaluated using RECIST v1.1 per protocol. Blood samples were collected for PK analysis before and after post-infusion at defined intervals, along with platelet counts. Exploratory biomarkers include (but are not limited to) the assessment of BCL-XL and VHL levels in peripheral white blood cells (WBC).
Fig. 6 Changes in BCL-XL and VHL expression after infusion of DT2216 at 0.4 mg/kg in 4 patients. […] Right panel depicts fold changes in VHL expression in the same patients after infusion of DT2216.

T1 sequence (P40337 whole entry): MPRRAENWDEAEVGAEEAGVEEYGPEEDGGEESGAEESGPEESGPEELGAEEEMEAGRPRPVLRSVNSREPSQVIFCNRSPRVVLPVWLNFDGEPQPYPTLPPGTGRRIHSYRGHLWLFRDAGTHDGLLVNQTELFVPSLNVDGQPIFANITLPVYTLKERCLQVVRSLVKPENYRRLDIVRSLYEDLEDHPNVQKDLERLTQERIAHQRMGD

SMILES: Cc1ncsc1-c1ccc([C@H](C)NC(=O)[C@@H]2C[C@@H](O)CN2C(=O)[C@@H](NC(=O)CCCCCC(=O)N2CCN(CC[C@H](CSc3ccccc3)Nc3ccc(S(=O)(=O)NC(=O)c4ccc(N5CCN(CC6=C(c7ccc(Cl)cc7)CCC(C)(C)C6)CC5)cc4)cc3S(=O)(=O)C(F)(F)F)CC2)C(C)(C)C)cc1 [DT2216]
- VHL expression in peripheral WBCs: did not demonstrate a simultaneous drop
